The record followed here is ChEMBL document CHEMBL3616406, “Soluble epoxide hydrolase inhibitory activity of anthraquinone components from Aloe” (Bioorg Med Chem, 2015).

Calls of active or inactive are those of the source. The rule behind the calls is not given here.

The target in experiment [1] is T1, Bifunctional epoxide hydrolase 2 (Homo sapiens) (UniProt P34913).
T1 sequence (whole entry): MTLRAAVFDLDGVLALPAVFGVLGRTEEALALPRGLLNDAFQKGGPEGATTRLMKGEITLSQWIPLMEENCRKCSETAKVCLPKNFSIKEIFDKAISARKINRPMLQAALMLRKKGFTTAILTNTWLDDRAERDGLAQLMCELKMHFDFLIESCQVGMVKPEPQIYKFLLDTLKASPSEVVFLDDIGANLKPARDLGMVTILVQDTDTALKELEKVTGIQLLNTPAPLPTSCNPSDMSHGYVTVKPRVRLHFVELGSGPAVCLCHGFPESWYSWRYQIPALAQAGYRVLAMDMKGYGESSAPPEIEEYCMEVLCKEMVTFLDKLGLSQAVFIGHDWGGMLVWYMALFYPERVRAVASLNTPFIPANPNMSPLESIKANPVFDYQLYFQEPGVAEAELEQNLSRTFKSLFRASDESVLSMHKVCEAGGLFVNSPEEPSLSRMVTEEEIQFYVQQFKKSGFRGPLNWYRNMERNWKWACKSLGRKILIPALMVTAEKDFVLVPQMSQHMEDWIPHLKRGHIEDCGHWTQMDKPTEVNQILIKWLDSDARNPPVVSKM
The experiment can be described thus: Non-competitive inhibition of sEH (unknown origin) using PHOME as substrate assessed as formation of 6-methoxy-2-naphthaldehyde measured during 30 mins by Lineweaver-Burk plot analysis.

In experiment [2] the target is T2, Bifunctional epoxide hydrolase 2 (Homo sapiens, UniProt P34913).
T2 sequence (P34913 whole entry): T1 sequence (whole entry)
The experiment in a line: Inhibition of sEH (unknown origin) using PHOME as substrate assessed as formation of 6-methoxy-2-naphthaldehyde measured during 1 hr by fluorescence photometric analysis.

Experiment [3] has as its target T2, Bifunctional epoxide hydrolase 2. The experiment in a line: Non-competitive inhibition of sEH (unknown origin) using PHOME as substrate assessed as formation of 6-methoxy-2-naphthaldehyde measured during 30 mins by Dixon plot analysis.
Experiment [4] concerns the target T1, Bifunctional epoxide hydrolase 2 (Homo sapiens). The experiment can be described thus: Inhibition of sEH (unknown origin) using PHOME as substrate assessed as formation of 6-methoxy-2-naphthaldehyde at 100 uM measured during 1 hr by fluorescence photometric analysis relative to control.
The target of experiment [5] is T2, Bifunctional epoxide hydrolase 2. The experiment can be described thus: Mixed-type inhibition of sEH (unknown origin) using PHOME as substrate assessed as formation of 6-methoxy-2-naphthaldehyde measured during 30 mins by Dixon plot analysis.
Experiment [6] deals with T1, Bifunctional epoxide hydrolase 2 (Homo sapiens). The experiment in a line: Mixed-type inhibition of sEH (unknown origin) using PHOME as substrate assessed as formation of 6-methoxy-2-naphthaldehyde measured during 30 mins by Lineweaver-Burk plot analysis.

The term inhibition denotes the relative decrease from the control value, in per cent. A word on the IC50: it is the concentration that gives 50% inhibition. For orientation: Ki means a dissociation constant, usually derived from enzyme kinetics or from competition with a known ligand. In the case of `O=C1c2cccc(O)c2C(=O)c2c(O)cc(CO)cc21` [ALOE-EMODIN], the inhibition entry in experiment [1] is “Active”. In experiment [2], the IC50 is 26.8 µM. In experiment [3], the inhibition constant Ki came to 52.2 µM. The inhibition in experiment [4] amounted to 79.9%.
Consider `O=C1c2c(O)cccc2C([C@@H]2O[C@H](CO)[C@@H](O)[C@H](O)[C@H]2O)c2cc(CO)cc(O)c21` (some centres not stated) [ALOIN], for which the Ki in experiment [5] came to 57.3 µM. Moreover, in experiment [6], the inhibition entry is “Active”. The IC50 in experiment [2] was found to be 37.4 µM. In addition, in experiment [4], the inhibition turned out to be 73.9%.
The matching figures for `C[C@@H]1O[C@@H](OCc2cc(O)c3c(c2)[C@H]([C@@H]2O[C@H](CO)[C@@H](O)[C@H](O)[C@H]2O)c2cccc(O)c2C3=O)[C@H](O)[C@H](O)[C@H]1O`: 2 µM, “Active”, 20.2 µM and 86.9%.
As for `O=C1c2c(O)cccc2[C@@H]([C@@H]2O[C@H](CO)[C@@H](O)[C@H](O)[C@H]2O)c2cc(CO)cc(O)c21`, in experiment [5], the Ki was 27.8 µM. For the same molecule, the inhibition entry in experiment [6] was “Active”. Also, the IC50 in experiment [2] was 41.1 µM. Moreover, the inhibition in experiment [4] was determined as 62.8%.
Turning to `O=C1c2cc(CO)cc(O)c2C(=O)c2c1ccc([C@]1([C@@H]3O[C@H](CO)[C@@H](O)[C@H](O)[C@H]3O)c3cccc(O)c3C(=O)c3c(O)cc(CO)cc31)c2O`, in experiment [1], the inhibition result was “Active”. In addition, in experiment [2], the IC50 came to 4.1 µM. In addition, the Ki in experiment [3] is 15.5 µM. Besides, the inhibition in experiment [4] was determined as 93.1%.
In the case of `C[C@@H]1O[C@@H](OCc2cc(O)c3c(c2)[C@H]([C@@H]2OC[C@@H](O)[C@H](O)[C@H]2O)c2cccc(O)c2C3=O)[C@H](O)[C@H](O)[C@H]1O`, the inhibition entry in experiment [1] is “Active”. Moreover, the IC50 in experiment [2] is 13.8 µM. The Ki in experiment [3] stood at 0.8 µM. Also, the inhibition in experiment [4] stood at 87%.
For the molecule `C[C@@H]1O[C@@H](OCc2cc(O)c3c(c2)[C@](O)([C@@H]2O[C@H](CO)[C@@H](O)[C@H](O)[C@H]2O)c2cccc(O)c2C3=O)[C@H](O)[C@H](O)[C@H]1O`, the Ki in experiment [5] was found to be 10.4 µM. In experiment [6], the inhibition result is “Active”. The IC50 in experiment [2] worked out at 12.5 µM. In experiment [4], the inhibition stood at 109%.
Consider `Cc1cc(O)c2c(c1)[C@H]([C@@H]1O[C@H](CO)[C@@H](O)[C@H](O)[C@H]1O)c1cccc(O)c1C2=O`, for which the Ki in experiment [5] came out at 0.2 µM. Moreover, the inhibition entry in experiment [6] was “Active”. In addition, the IC50 in experiment [2] turned out to be 15.6 µM. Also, the inhibition in experiment [4] was 90.5%.
